Test results taken from patent US5763597A, “Orally active adenosine kinase inhibitors” (priority 1996, dated 1998).

Legend:
[1] = target: adenosine kinase; experiment: AK inhibition (adenosine kinase activity, [U-14C] adenosine); type: biochemical, partially purified pig heart or recombinant human; settings: 0.5 μM adenosine, 1 mM ATP, pH 7.0, 20 min; pig heart or recombinant human enzyme
Experimental: Adenosine kinase activity was measured essentially as described by Yamada et al. Biochim. Biophys. Acta 660, 3643 (1988) with a few minor modifications. Assay mixtures contained 50 mM TRIS-maleate buffer, pH 7.0, 0.1% BSA, 1 mM ATP 1 mM MgCl2, 0.5 μM [U-^14 C] adenosine (400-600 mCi/mmol) and varying duplicate concentrations of inhibitor. […] The amount of ^14 C-AMP was quantified by scintillation counting.

[2] = test system: carrageenan paw swelling in rats; experiment: Anti-inflammatory activity, carrageenan paw swelling; type: in vivo; settings: rat, swelling after 3 hours; for Carrageenan Paw (% inh) ip: 10 mg/kg ip, 30 min before carrageenan; for Carrageenan Paw (% inh) po: 10 mg/kg po, 1 h before carrageenan
[3] = test system: maximal electroshock seizures (hind limb tonic extension) in male SA rats; experiment: Anticonvulsant activity, maximal electroshock (MES) model; type: in vivo; settings: rat, ip; ">5" = HTE inhibited in fewer than 50% of animals at 5 mg/kg screen; ">>" (written >) = no activity, "<" = maximal activity at stated dose
[4] = test system: liver enzymes and total bilirubin in female SA rats; experiment: Liver toxicity (serum liver enzymes and bilirubin); type: in vivo; settings: rat, 2 x 37.5 μmole/kg iv infusion, 12 h after second dose; for Total Bilirubin: vehicle 0.10 ±0.04; for SGPT: vehicle 80 ±10; for SGOT: vehicle 102 ±12; for Alkaline Phosphatase: vehicle 140 ±50
Experimental: Female SA rats (150-200 g) were anesthetized with halothane and a chronic catheter was placed in the internal jugular vein. The animals were allowed to recover for 3 days. […] Twelve hours later, an additional 37.5 μmole/kg was infused over 40 minutes (total dose=75 μmole/kg). Twelve hours after the second dose, the animals were anesthetized with halothane and exsanguinated through the descending aorta. Liver enzymes (serum glutamic-oxaloacetic transaminase (SGOT), serum glutamic-pyruvic transaminase (SGPT), alkaline phosphatase) and total bilirubin in the serum samples were determined by a commercial laboratory.

[5] = test system: formalin-induced pain in rats; experiment: Analgesic activity, formalin paw model; type: in vivo; settings: rat, oral, 20 mg/kg; for % Inhibition Phase 1 Composite score: Phase 1 (1.7-5 min post-formalin); for % Inhibition Phase 2 Composite score: Phase 2 (10.3-30 min post-formalin); for % Inhibition Phase 2 Licking/biting: Phase 2, licking/biting incidences
Description: Pharmacol. Exper. Ther., 250:3, 915-922 (1989). See also, Life Sciences 51:171-76 (1992). These models measure pain avoidance and tolerance in response to a regulated stimulus, and compare the response of animals before and after they are given test compound. Formalin Paw Assay In this assay, injection of formalin, an irritant, into the hindpaw of rats typically evokes a biphasic response of pain-related behaviors. […] Phase I behavior is thought to be a direct effect of the irritant on nociceptors at the injection site while phase 2 behavior is thought to include a hyperalgesic component mediated by sensitization of neuronal elements within the spinal cord. Studies from other laboratories have found the first portion of Phase 2 (sometimes referred to as Phase 2a) to be most responsive to pharmacological manipulation. Rats (male, Simonsen) weighing between 100-200 g, are used in the present experiments. For screening purposes drugs are administered orally 90 min prior to initiation of formalin test. […] The rat is then immediately placed in a separate plexiglass box and scoring (described below) of the animal's behavior is begun at 1.7 min after formalin injection. […] This sequence is repeated over a 30 min period. […] Scores are continuously recorded directly onto an Excel spreadsheet.

Structure (SMILES): C[C@H]1O[C@@H](n2cc(-c3ccc(F)cc3)c3c(Nc4ccccc4)ncnc32)[C@H](O)[C@@H]1O [compound 24]
- IC50 [1]: 1 nM
- Carrageenan Paw (% inh) ip [2]: 35.6 % inh
- Carrageenan Paw (% inh) po [2]: 21.3 % inh

Structure (SMILES): [N-]=[N+]=NC[C@H]1O[C@@H](n2nc(-c3cccs3)c3c(Nc4ccccc4)ncnc32)[C@H](O)[C@@H]1O [compound 97]
- IC50 [1]: 10 nM
- Anticonvulsant ED50 (MES) ip [3]: > 5 mg/kg

Structure (SMILES): C[C@H]1O[C@@H](n2cc(-c3ccccc3)c3c(Nc4cccc(Cl)c4)ncnc32)[C@H](O)[C@@H]1O [compound 17]
- IC50 [1]: 17 nM

Structure (SMILES): [N-]=[N+]=NC[C@H]1O[C@@H](n2nc(-c3ccc(Cl)cc3)c3c(Nc4ccccc4)ncnc32)[C@H](O)[C@@H]1O [compound 96]
- IC50 [1]: 15 nM

Structure (SMILES): C[C@H]1O[C@@H](n2cc(-c3ccccc3)c3c(Nc4cc(F)cc(F)c4)ncnc32)[C@H](O)[C@@H]1O [compound 10]
- IC50 [1]: 1 nM

Structure (SMILES): Cc1cccc(Nc2ncnc3c2c(-c2ccccc2)cn3[C@@H]2O[C@H](C)[C@@H](O)[C@H]2O)c1 [compound 18]
- IC50 [1]: 4 nM

Structure (SMILES): Cc1ccc(-c2nn([C@@H]3O[C@H](CN=[N+]=[N-])[C@@H](O)[C@H]3O)c3ncnc(Nc4ccccc4)c23)cc1 [compound 93]
- IC50 [1]: 20 nM

Structure (SMILES): OC[C@H]1O[C@@H](n2nc(-c3ccccc3)c3c(Nc4ccccc4)ncnc32)[C@H](O)[C@@H]1O [compound 88]
- IC50 [1]: 5 nM

Structure (SMILES): C[C@H]1O[C@@H](n2cc(-c3ccccc3)c3c(Nc4ccc(O)cc4)ncnc32)[C@H](O)[C@@H]1O [compound 20]
- IC50 [1]: 32 nM

Structure (SMILES): [N-]=[N+]=NC[C@H]1O[C@@H](n2nc(-c3ccccc3)c3c(Nc4ccccc4)ncnc32)[C@H](O)[C@@H]1O [compound 87]
- IC50 [1]: 4.5 nM

Structure (SMILES): COc1ccc(-c2nn([C@@H]3O[C@H](CN=[N+]=[N-])[C@@H](O)[C@H]3O)c3ncnc(Nc4ccc(C)cc4)c23)cc1 [compound 95]
- IC50 [1]: 7 nM

Structure (SMILES): Cc1ccc(-c2cn([C@@H]3O[C@H](C)[C@@H](O)[C@H]3O)c3ncnc(Nc4ccccc4)c23)cc1 [compound 16]
- IC50 [1]: 9 nM

Structure (SMILES): COc1ccc(-c2nn([C@@H]3O[C@H](CN=[N+]=[N-])[C@@H](O)[C@H]3O)c3ncnc(Nc4ccccc4)c23)cc1 [compound 94]
- IC50 [1]: 3 nM

Structure (SMILES): C[C@H]1O[C@@H](n2cc(-c3ccc(C#N)cc3)c3c(Nc4ccc(F)cc4)ncnc32)[C@H](O)[C@@H]1O [compound 132]
- IC50 [1]: 10 nM

Structure (SMILES): C[C@H]1O[C@@H](n2cc(-c3ccccc3)c3c(Nc4ccc(I)cc4)ncnc32)[C@H](O)[C@@H]1O [compound 128]
- IC50 [1]: 4 nM
- Carrageenan Paw (% inh) ip [2]: 18.9 % inh
- Carrageenan Paw (% inh) po [2]: 0.0 % inh

Structure (SMILES): COc1ccc(Nc2ncnc3c2c(-c2ccccc2)nn3[C@@H]2O[C@H](C)[C@@H](O)[C@H]2O)cc1 [compound 89]
- IC50 [1]: 17 nM

Structure (SMILES): C[C@H]1O[C@@H](n2cc(-c3cccc(Cl)c3)c3c(Nc4ccccc4)ncnc32)[C@H](O)[C@@H]1O [compound 15]
- IC50 [1]: 16 nM

Structure (SMILES): CSc1ccc(Nc2ncnc3c2c(-c2ccccc2)cn3[C@@H]2O[C@H](C)[C@@H](O)[C@H]2O)cc1 [compound 40]
- IC50 [1]: 2 nM

Structure (SMILES): COc1ccc(Nc2ncnc3c2c(-c2ccccc2)cn3[C@@H]2O[C@H](C)[C@@H](O)[C@H]2O)cc1 [compound 13]
- IC50 [1]: 6 nM

Structure (SMILES): C[C@H]1O[C@@H](n2cc(-c3ccccc3)c3c(Nc4ccc(NC(=O)C(F)(F)F)cc4)ncnc32)[C@H](O)[C@@H]1O [compound 129]
- IC50 [1]: 2 nM
- Carrageenan Paw (% inh) ip [2]: 48.9 % inh
- Carrageenan Paw (% inh) po [2]: 35.7 % inh
- Total Bilirubin [4]: 0.52 mg/dL
- SGPT [4]: 54 IU/L
- SGOT [4]: 162 IU/L
- Alkaline Phosphatase [4]: 110 IU/L

Structure (SMILES): C[C@H]1O[C@@H](n2cc(-c3ccccc3)c3c(Nc4ccc(CC#N)cc4)ncnc32)[C@H](O)[C@@H]1O [compound 126]
- IC50 [1]: 1 nM

Structure (SMILES): C[C@H]1O[C@@H](n2c(Br)c(-c3ccccc3)c3c(Nc4ccc(F)cc4)ncnc32)[C@H](O)[C@@H]1O [compound 41]
- IC50 [1]: 42 nM

Structure (SMILES): C[C@H]1O[C@@H](n2cc(-c3ccccc3)c3c(Nc4cccc(F)c4)ncnc32)[C@H](O)[C@@H]1O [compound 19]
- IC50 [1]: 2 nM

Structure (SMILES): C[C@H]1O[C@@H](n2nc(-c3ccccc3)c3c(Nc4ccccc4)ncnc32)[C@H](O)[C@@H]1O [compound 86]
- IC50 [1]: 4.5 nM

Structure (SMILES): C[C@H]1O[C@@H](n2cc(-c3cccc([N+](=O)[O-])c3)c3c(Nc4ccc(F)cc4)ncnc32)[C@H](O)[C@@H]1O [compound 30]
- IC50 [1]: 28 nM

Structure (SMILES): CCc1ccc(Nc2ncnc3c2c(-c2ccccc2)cn3[C@@H]2O[C@H](C)[C@@H](O)[C@H]2O)cc1 [compound 29]
- IC50 [1]: 20 nM
- Carrageenan Paw (% inh) ip [2]: 46.1 % inh
- Carrageenan Paw (% inh) po [2]: 10.7 % inh

Structure (SMILES): C[C@H]1O[C@@H](n2cc(-c3ccccc3)c3c(NCc4ccccc4)ncnc32)[C@H](O)[C@@H]1O [compound 38]
- IC50 [1]: 30 nM

Structure (SMILES): CCOCc1ccc(Nc2ncnc3c2c(-c2ccccc2)cn3[C@@H]2O[C@H](C)[C@@H](O)[C@H]2O)cc1 [compound 125]
- IC50 [1]: 2 nM
- Carrageenan Paw (% inh) ip [2]: 24.4 % inh
- Carrageenan Paw (% inh) po [2]: 0.0 % inh

Structure (SMILES): CCOc1ccc(Nc2ncnc3c2c(-c2ccccc2)cn3[C@@H]2O[C@H](C)[C@@H](O)[C@H]2O)cc1 [compound 28]
- IC50 [1]: 4 nM
- % Inhibition Phase 1 Composite score [5]: 22.5%
- % Inhibition Phase 2 Composite score [5]: 46.8%
- % Inhibition Phase 2 Licking/biting [5]: 83%
- Carrageenan Paw (% inh) ip [2]: 22.2 % inh
- Carrageenan Paw (% inh) po [2]: 31.0 % inh

Structure (SMILES): COc1ccc(Nc2ncnc3c2c(-c2ccccc2)nn3[C@@H]2O[C@H](CN=[N+]=[N-])[C@@H](O)[C@H]2O)cc1 [compound 90]
- IC50 [1]: 8 nM

Structure (SMILES): COc1ccc(-c2cn([C@@H]3O[C@H](C)[C@@H](O)[C@H]3O)c3ncnc(Nc4ccc(F)cc4)c23)cc1 [compound 25]
- IC50 [1]: 10 nM
- % Inhibition Phase 1 Composite score [5]: 88.4%
- % Inhibition Phase 2 Composite score [5]: 91.9%
- % Inhibition Phase 2 Licking/biting [5]: 100%

Structure (SMILES): C[C@H]1O[C@@H](n2cc(I)c3c(N)ncnc32)[C@H](O)[C@@H]1O [REF. A, reference compound]
- Total Bilirubin [4]: 0.76 mg/dL
- SGPT [4]: 76 IU/L

Structure (SMILES): COc1ccc(-c2cn([C@@H]3O[C@H](C)[C@@H](O)[C@H]3O)c3ncnc(Nc4ccc(C(N)=O)cc4)c23)cc1 [compound 31]
- IC50 [1]: 2 nM
- Carrageenan Paw (% inh) ip [2]: 17.2 % inh
- Carrageenan Paw (% inh) po [2]: 0 % inh

Structure (SMILES): C[C@H]1O[C@@H](n2cc(-c3ccccc3)c3c(Nc4ccc(F)c(F)c4)ncnc32)[C@H](O)[C@@H]1O [compound 11]
- IC50 [1]: 4 nM

Structure (SMILES): [N-]=[N+]=NC[C@H]1O[C@@H](n2nc(-c3ccccc3)c3c(Nc4ccc(Cl)cc4)ncnc32)[C@H](O)[C@@H]1O [compound 92]
- IC50 [1]: 17 nM

Structure (SMILES): C[C@H]1O[C@@H](n2nc(-c3ccccc3)c3c(Nc4ccc(Cl)cc4)ncnc32)[C@H](O)[C@@H]1O [compound 91]
- IC50 [1]: 11 nM

Structure (SMILES): C[C@H]1O[C@@H](n2cc(-c3cccc(N)c3)c3c(Nc4ccc(F)cc4)ncnc32)[C@H](O)[C@@H]1O [compound 131]
- IC50 [1]: 3 nM
- Carrageenan Paw (% inh) ip [2]: 44.2 % inh
- Carrageenan Paw (% inh) po [2]: 15.9 % inh
- Total Bilirubin [4]: 0.10 mg/dL
- SGPT [4]: 65 IU/L
- SGOT [4]: 120 IU/L
- Alkaline Phosphatase [4]: 169 IU/L

Structure (SMILES): NC[C@H]1O[C@@H](n2nc(Br)c3c(N)ncnc32)[C@H](O)[C@@H]1O [REF. B, 4amino-1-(5-amino-5-deoxy-1-D-ribofuranosyl)-3-bromopyrazolo[3,4d]pyrimidine, reference compound]
- Total Bilirubin [4]: 0.30 mg/dL
- SGPT [4]: 41 IU/L
- SGOT [4]: 100 IU/L

Structure (SMILES): C[C@H]1O[C@@H](n2cc(-c3ccc(CNC(N)=O)cc3)c3c(Nc4ccc(F)cc4)ncnc32)[C@H](O)[C@@H]1O [compound 197]
- Carrageenan Paw (% inh) ip [2]: 16.3 % inh
- Carrageenan Paw (% inh) po [2]: 21.5 % inh
